Data on five molecules can be found in patent US20100041045A1, “NUCLEIC ACID FLUORESCENT STAINS” (SIGMA-ALDRICH CO., priority 2007, published 2010).

SMILES strings stand for the structures. Where two headings read alike, the source gives them in different places.

The test system of data set [1] is PstI-digested lambda DNA. The data set can be described thus: Post electrophoretic staining of DNA in agarose gels (Example 2). Conditions: for detection of stained DNA at longer wavelengths: laser scanner, 532/580 filter set. The protocol:
The absorption and emission spectra of the unsymmetrical monomethincyanine dyes of the invention are shifted to longer wavelengths relative to those of commonly used nucleic acid stains. […] Invitrogen Corp.) and imaged using different detection devices. PstI-digested lambda DNA (Cat. No. D1793; Sigma-Aldrich, St. Louis, Mo.) was resolved on agarose gels in the presence of TBE buffer, pH 8.3. Lanes were loaded with a total of either 500 ng or 100 ng of DNA (the loading buffer contained 0.05% bromophenol blue (w/v), 40% sucrose (w/v), 0.5% SDS (w/v), and 0.1 M EDTA, pH 8). The gels were run at 90 V for about 90 min. After electrophoresis, the gels were submerged in a solution of TBE buffer comprising 2 μM of 6 (SL-2791) or SG1 for 1 hr. After a quick rinse, the gels were imaged with 1) a 300 nm UV transilluminator (Cat. No. T2202; Sigma-Aldrich) or a 450 nm (blue light) transilluminator (Dark Reader™; Clare Chemical Research, Denver, Colo.) and a CCD camera imaging system (Gel Logic 100; Kodak Imaging, Rochester, N.Y.) equipped with a 535 nm or a 590 nm emission filter and 2) a laser scanner fluorescent image analyzer system (FLA-300; Fujifilm, Japan) equipped with excitation/emission filter sets of 473/520 nm or 532/580 nm.

Data set [2] deals with HindIII-digested lambda DNA. The data set can be described thus: Digestion of stained DNA (Example 7). The data set is classed as biochemical. Conditions: 6557 bp band eluted from gel, restriction enzyme. The procedure:
To determine whether the binding between DNA and an unsymmetrical monomethincyanine dye was strong enough to inhibit the digestion of the DNA, HindIII-digested lambda DNA (1 μg/lane) was resolved on an agarose gel (0.8%), as described above. The DNA was stained either during or after electrophoresis. The band-of-interest (e.g., the 6557 bp band) was excised from the gel using a blue light transilluminator [see FIG. 6A, the DNA was stained with 6 (SL-2791)]. DNA was eluted from the piece of agarose using a spin column (GenElute Agarose Spin Column, Cat. No. 5-6500; Sigma-Aldrich). The collected DNA was digested with an appropriate restriction enzyme, and the reaction products were analyzed on a new agarose gel (1.2%) using compound 9 (SL-2845). The left lane of FIG. 6B presents the undigested DNA and the right lane of FIG. 6B presents the digested products.

The test system of data set [3] is HindIII-digested lambda DNA. The data set can be described thus: DNA gel staining, comparison of compounds 7 and 8 (Example 4). Conditions: 200 and 20 ng/lane DNA. The procedure: The brightness, sensitivity, and spectral properties of two of the new unsymmetrical monomethincyanine dyes, compound 7 (SL-2833) and compound 8 (SL-2834), were compared by staining gels containing 200 ng/lane and 20 ng/lane of HindIII-digested lambda DNA. The gels were processed and imaged as described above in Example 2.

Data set [4] relates to dsDNA. Briefly: Binding specificity and fluorescence with dsDNA versus ssDNA.
Data set [5] has as its system human alu-consnesus sequence. Briefly: Real-time qPCR (Example 9). In kind it is biochemical. The protocol:
PCR was performed on human genomic DNA obtained from 0.16 million human peripheral blood leukocytes by direct lysis in a volume of 1 ml as described by Christopherson et al, PCR-Based Assay To Quantify Human Immunodeficiency Virus Type 1 DNA In Peripheral Blood Mononuclear Cells, 2000, J Clin Microbiol., pp. 630-634, Vol. 38. […] Additionally, a non-template control containing deionised water as sample was used. Two μl per sample were then used for real-time PCR as follows: PCR reactions were run in JumpStart™ ReadyMix™ (Sigma Aldrich, order number p2893), containing salt, buffer, Taq-DNA polymerase and deoxynucleotidetriphosphates in a final volume of 32 μl. PCR primers were added to a final concentration of 1 μM. To obtain optimal performance in real time PCR, the PCR mix was supplemented with additional MgCL2 to a final concentration of 3 mM. The DNA binding dye Nancy-520 was added to a final concentration of 200 nM. PCR primers mf39 (5′-[…]-3′) and mf40 (5′-[…]-3′) were used at a final concentration of 1 μM. These primers amplify a 133 base pair fragment of the human alu-consnesus sequence (see Clayerie et al, Alu alert, 1994, Nature, pp. 752, Vol. 371.) (available from the Genbank database: http://www.ncbi.nlm.nih.gov/Genbank/, entry nr: HSU14574). Because these repetitive sequences are highly abundant in the human genome, the PCR for alu sequences can be used to detect minute amounts of human DNA.
Real-time PCR was performed in a real-time PCR thermocycler (IQ-5, Biorad, Basel Switzerland) using the following cycling profile: Initial denaturation 94° C. 20 sec, followed for 40 cycles (94° C. 5 sec, 60° C. 5 sec, 72° C. 20 sec, 60° C. 60 sec with real-time monitoring). After cycling a melting curve analysis ranging from 55° C.-92° C. was performed with temperature increments of 0.5° C. and measurement intervals of 30 sec. Five different optical filter-sets were used for real-time PCR monitoring and melting-curve analysis according to the suppliers instructions (see table 1).
Data (FIG. 9A, 9C, 9D) were analyzed using the IQ5 software (version 2.0) or by linear regression analysis (FIG. 9B) using the statistical software GraphPad Prism version 5.01 (GraphPad Software, Inc., La Jolla, Calif.)
The first number, 485, indicates the center of the wavelength of light. The second number, 20 indicates the total breadth of wavelengths of light that can pass through it.

Data set [6] deals with HindIII-digested lambda DNA and 0.2-10 kb RNA markers. The data set can be described thus: Staining of DNA and RNA in gels (Example 5). Conditions: 200 ng/lane DNA, 1 μg/lane RNA; laser scanner 532/580 nm. The protocol: Gels were loaded with 200 ng/lane of HindIII-digested lambda DNA and 1 μg/lane of 0.2-10 kb RNA markers (Cat. No. R1386; Sigma-Aldrich). The RNA loading buffer contained 62.5% formamide (v/v), 1.14 M formaldehyde, 0.2 mg/ml bromophenol blue, 0.2 mg/ml xylene cyanol, and 1.25×MOPS-EDTA-sodium acetate buffer. After electrophoresis the gels were stained with compound 9 (SL-2845), SG1, or the RNA-specific stain SYBR® Green 2 (SG2; Invitrogen) and imaged as described above in Example 2.

Data set [7] concerns DNA polymerase. Briefly: Inhibition of DNA polymerase activity in qPCR. In kind it is biochemical. Conditions: concentrations greater than 0.5 μM. On the technique in general: Quantitative PCR measures a nucleic acid by following its amplification.
Data set [8] relates to HindIII-digested lambda DNA. The data set can be described thus: Prestaining of DNA during electrophoresis (Example 3). The protocol:
The ability of another of the new unsymmetrical monomethincyanine dyes, i.e., compound 7 (SL-2833), to stain DNA during electrophoresis (i.e., “prestain”) was compared to that of ethidium bromide (EtBr). For this, 1 μM of 7 (SL-2833) or EtBr was added to the heated agarose before the gel was poured. The gels were loaded with 200 ng/lane and 20 ng/lane of HindIII-digested lambda DNA (Cat. No. D9780; Sigma-Aldrich) and run at 90 V for about 90 min. After electrophoresis, the gels were imaged as described above in Example 2.

Data set [9] concerns HindIII-digested lambda DNA. The data set can be described thus: Determination of the lower limit of detection (Example 6). To be noted: 300 nm UV transilluminator, CCD camera, 590 nm emission filter. The protocol:
HindIII-digested lambda DNA (200 ng/lane and 20 ng/lane) was resolved on agarose gels, as described above. EtBr was added to one gel such that the DNA was stained during electrophoresis; the other gels were stained with compound 6 (SL-2791), 7 (SL-2833), 8 (SL-2834), 9 (SL-2845), or SG1 after electrophoresis. Gels were imaged using a 300 nm UV transilluminator and a CCD camera with a 590 nm emission filter.

In data set [10] the test system is DNA polymerase. To be noted: high concentrations (>0.5 μM); cited from earlier work.
The mark [11] stands for this setting: 1 μM in gel, UV transilluminator.

As to `CN1C(c2ccccc2)=C/C(=C\c2sc3ccccc3[n+]2CCCO)c2ccccc21` [Compound 6, 1-Methyl-4-[(2,3-dihydro-3-(3-hydroxypropyl)benzo-1,3-thiazol-2-yl)-methyliden]-2-phenyl-quinolinium perchlorate], in [1] (2 μM stain in TBE for 1 hr, under each detection condition), the “brightness of stained DNA bands compared with SG1” value is “much brighter”. The “detection of stained DNA at longer wavelengths” value in data set [1] was “could be detected at longer wavelengths”. Moreover, the “enzymatic digestion of stained DNA” value in [2] was “may be enzymatically digested”.
Turning to `Cc1ccc2c(c1)/C(=C/c1sc3ccccc3[n+]1CCO)C=C(c1ccccc1)N2C` [Compound 8], in data set [3], the “detection using the laser-based long wavelength imaging system” value is on record as “clearly detected”; the “fluorescence with blue light transilluminator and 590 nm filter as compared to UV transilluminator” value is “reduced fluorescence”.
As for `CN1C(c2ccccc2)=C/C(=C\c2sc3ccccc3[n+]2CCCCO)c2ccccc21` [Compound 9], the “binding specificity for dsDNA” value in data set [4] is “high binding specificity”. For the same molecule, the “fluorescence in the presence of dsDNA” value in data set [4] was “strong fluorescence signal”. In addition, in data set [4], the “fluorescence in the presence of ssDNA or in the absence of nucleic acids” value is given as “only weak fluorescence”. In addition, the “robustness in DNA melt curve analysis” value in data set [5] (55° C.-92° C. following PCR cycling) is reported as “sufficiently robust”. The thermostability result in data set [5] (PCR temperature cycles) is reported as “high thermostability”. In addition, the “Performance of PCR in measuring Nancy-520 fluorescence” value was “Filter set unsuitable (data not shown)” in data set [5] (filter-set CY3, 545/30X 585/20M); “Filter set unsuitable (data not shown)” in data set [5] (filter-set CY5, 630/30X 685/30M); “Weak” in [5] (filter-set FAM, 485/20X 530/30M); “Strong amplification signals (virtually” in data set [5] (filter-set TXR, 575/30X 625/30M). For the same molecule, the “PCR signal amplitudes at lower dye concentrations” value in data set [5] (lower concentrations than 2000 nm, data not shown) is “Suitable although slightly reduced signal amplitudes”. Also, the “staining intensity of DNA versus RNA” value in data set [6] is on record as “stained DNA more intensely than RNA”. In data set [7], the “inhibition of DNA polymerase activity” value is “does not inhibit DNA polymerase activity”.
Regarding `Cc1ccc2c(c1)/C(=C/c1sc3ccccc3[n+]1CCCO)C=C(c1ccccc1)N2C` [Compound 7], in data set [3], the “detection using the laser-based long wavelength imaging system” value is recorded as “clearly detected”; the “fluorescence with blue light transilluminator and 590 nm filter as compared to UV transilluminator” value is recorded as “reduced fluorescence”. In addition, in [8] (setting [11]), the “background fluorescence at top of gels compared with EtBr” value is reported as “lower background fluorescence” and the “fluorescence of stained DNA bands compared with EtBr” value was “increased fluorescence”. The “imaging of stained DNA at longer wavelengths” value in [8] (laser scanner 473/520 and 532/580 nm filter sets, low levels of DNA = 20 ng/lane) is given as “readily imaged”.
With `CCCN(CCCN(C)C)c1cc(/C=C2/Sc3ccccc3N2C)c2ccccc2[n+]1-c1ccccc1` [SG1], the “detection of stained DNA at longer wavelengths” value is recorded as “not visible” in [1] and “not detected” in data set [1] (listed as SYBR® Green 1). For the same molecule, in data set [9], the “lower limit of detection, DNA per lane” value was “less than 1 ng”. The “inhibition of DNA polymerase activity” value in data set [10] was “inhibit DNA polymerase activity”.
